Biological target: T1, PfENT1 (Plasmodium falciparum, UniProt Q8IDM6)
T1 construct: expressed in transfected cells; host or cells: fui1Δ yeast (Saccharomyces cerevisiae), co-expressing GFP
Type: cell-based
Settings: primary HTS, compounds at 10 μM, 125 μM 5-FUrd
Experimental: A yeast-based high throughput screening (HTS) assay was used to identify compounds that inhibit PfENT1. The compounds described in this application were identified by screening four commercially available, chemical compound libraries obtained from Dr. Donald Landry's laboratory (Department of Medicine, Columbia University). These libraries contain approximately 80,000 unique chemical entities.
In the primary screen the compounds were tested at a concentration of 10 μM. Hits were identified by the growth of fui1Δ yeast expressing PfENT1 and Green Fluorescent Protein (GFP) in the presence of the cytotoxic nucleoside 5-fluorouridine (5-FUrd). 5-FUrd is transported by PfENT1. PfENT1 expressing fui1Δ yeast will only grow in the presence of 125 μM 5-FUrd if a PfENT1 inhibitor blocks the uptake of 5-FUrd into the yeast. Significant yeast growth in the HTS in 384 well plates was determined by two criteria: 1) turbidity as determined by the optical density at 620 nm (OD620) and 2) GFP fluorescence intensity. […] Hits had to be positive by both criteria.

T1 sequence (Q8IDM6 whole entry): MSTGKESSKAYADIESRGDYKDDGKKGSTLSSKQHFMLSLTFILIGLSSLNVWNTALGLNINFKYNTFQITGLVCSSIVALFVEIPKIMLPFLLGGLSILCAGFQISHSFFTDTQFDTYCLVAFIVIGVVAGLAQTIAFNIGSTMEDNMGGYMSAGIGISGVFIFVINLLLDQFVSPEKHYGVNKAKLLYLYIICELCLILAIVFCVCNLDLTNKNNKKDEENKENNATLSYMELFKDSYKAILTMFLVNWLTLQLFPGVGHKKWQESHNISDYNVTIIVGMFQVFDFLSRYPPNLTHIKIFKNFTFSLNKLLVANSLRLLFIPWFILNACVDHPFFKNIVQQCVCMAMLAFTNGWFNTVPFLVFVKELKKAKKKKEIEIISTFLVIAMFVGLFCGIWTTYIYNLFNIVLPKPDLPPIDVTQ

SMILES: COc1ccc(C2CC(c3ccccc3C)n3nc(N)nc3N2)cc1 (stereo not shown) [compound 133, 5-(4-methoxyphenyl)-7-(2-methylphenyl)-4,5,6,7-tetrahydro[1,2,4] triazolo[1,5-a]pyrimidin-2-amine]
- Avg Normalized % maximal activity: 3.57%

SMILES: COC(=O)c1ccccc1NC(=O)c1cccc(NC(=O)c2cccs2)c1C [compound 112, methyl 2-({2-methyl-3-[(2-thienylcarbonyl)amino]benzoyl}amino)benzoate]
- Avg Normalized % maximal activity: 4.55%

SMILES: COc1ccc(-c2cnc3ccccc3n2)cc1NC(=O)c1cccs1 [compound 92, N-(2-methoxy-5-(2-quinoxalinyl)phenyl]-2-thiophenecarboxamide]
- Avg Normalized % maximal activity: 5.16%

SMILES: COC(=O)c1ccccc1NC(=O)c1cccc(NC(=O)C(C)C)c1 [compound 52]
- Avg Normalized % maximal activity: 8.03%

SMILES: CCOC(=O)c1ccc(NC(=O)c2nc(SC)ncc2Cl)cc1 [compound 91, ethyl 4-({[5-chloro-2-(methylthio)-4-pyrimidinyl]carbonyl}amino)benzoate]
- Avg Normalized % maximal activity: 5.19%

SMILES: O=C(Nc1cccc(NC(=O)c2ccco2)c1)c1cccc(Br)c1 [compound 76, N-{3-[(3-bromobenzoyl)amino]phenyl}-2-furamide]
- Avg Normalized % maximal activity: 6.23%

SMILES: O=C(Nc1ccc(-c2nc3ccccc3o2)cc1)C1CCCO1 (stereo not shown) [compound 49, N-[4-(1,3-benzoxazol-2-yl)phenyl]tetrahydro-2-furancarboxamide]
- Avg Normalized % maximal activity: 8.36%

SMILES: O=C(Nc1c(-c2ccccc2)nc2ccc(Cl)cn12)c1ccccc1 [compound 167, N-(6-chloro-2-phenylimidazo [1,2-a]pyridin-3-yl)benzamide]
- Avg Normalized % maximal activity: 1.96%

SMILES: O=C(NC(=O)c1ccccc1)Nc1cc(N2CCOCC2)ncn1 [compound 43, N-({[6-(4-morpholinyl)-4-pyrimidinyl]amino}carbonyl) benzamide]
- Avg Normalized % maximal activity: 9.52%

SMILES: CCCCC(=O)Nc1ccc(NC(=O)c2cccs2)cc1OC [compound 156, N-[3-methoxy-4-(pentanoylamino)phenyl]-2-thiophenecarboxamide]
- Avg Normalized % maximal activity: 2.17%

SMILES: CC(=O)Nc1ccc2nc(SCC(=O)NC3CCCCC3)sc2c1 [compound 160]
- Avg Normalized % maximal activity: 2.09%

SMILES: O=C(Nc1cccc(-c2nc3ncccc3o2)c1)c1ccc2c(c1)OCCO2 [compound 145, N-(3-[1,3]oxazolo[4,5-b]pyridin-2-ylphenyl)-2,3-dihydro-1,4-benzodioxine-6-carboxamide]
- Avg Normalized % maximal activity: 3.02%

SMILES: COc1cc(NC(=O)c2cccc(Br)c2)nc(OC)n1 [compound 101, 3-bromo-N-(2,6-dimethoxy-4-pyrimidinyl)benzamide]
- Avg Normalized % maximal activity: 4.78%

SMILES: COc1ccc(-c2cc3ccccc3oc2=O)cc1NC(=O)c1cccs1 [compound 67, N-[2-methoxy-5-(2-oxo-2H-chromen-3-yl)phenyl]-2-thiophenecarboxamide]
- Avg Normalized % maximal activity: 6.98%

SMILES: COC(=O)c1cc(NC(=O)c2cc3ccccc3o2)ccc1N1CCOCC1 [compound 73, methyl 5-[(1-benzofuran-2-ylcarbonyl)amino]-2-morpholin-4-ylbenzoate]
- Avg Normalized % maximal activity: 6.43%

SMILES: COc1ccc(/C=C/c2nc(C#N)c(N3CCCCC3)o2)cc1OC [compound 128, 2-[2-(3,4-dimethoxyphenyl)vinyl]-5-(1-piperidinyl)-1,3-oxazole-4-carbonitrile]
- Avg Normalized % maximal activity: 3.74%

SMILES: Br.Cc1ccnc(Nc2nc(-c3cccnc3)cs2)c1 [compound 146, 4-methyl-N-[4-(3-pyridinyl)-1,3-thiazol-2-yl]-2-pyridinamine hydrobromide]
- Avg Normalized % maximal activity: 2.97%

SMILES: COc1ccc(C(=O)Nc2cccc(-c3nc4ncccc4o3)c2)cc1 [compound 16, 4-methoxy-N-(3-[1,3]oxazolo [4,5-b]pyridin-2-ylphenyl)benzamide]
- Avg Normalized % maximal activity: 23.87%

SMILES: COc1cc(NC(=O)CSc2nccc(C)n2)c(OC)cc1Cl [compound 117, N-(4-chloro-2,5-dimethoxyphenyl)-2-[(4-methyl-2-pyrimidinyl)thio]acetamide]
- Avg Normalized % maximal activity: 4.28%

SMILES: O=C(Nc1cccnc1)c1cc2cc(C3CC3)cc(C(F)(F)F)n2n1 [compound 100]
- Avg Normalized % maximal activity: 4.83%

SMILES: COc1ccc(-c2nc3ccccc3s2)cc1NC(=O)c1cccnc1 [compound 58, N-[5-(1,3-benzothiazol-2-yl)-2-methoxyphenyl] nicotinamide]
- Avg Normalized % maximal activity: 7.63%

SMILES: CCOc1ccccc1C(=O)Nc1nc(C)c(C(=O)N(C)C)s1 [compound 83, 2-[(2-ethoxybenzoyl)amino]-N,N,4-trimethyl-1,3-thiazole-5-carboxamide]
- Avg Normalized % maximal activity: 5.75%

SMILES: CNC[C@H](O)[C@@H](O)[C@H](O)[C@H](O)CO [compound 109]
- Avg Normalized % maximal activity: 4.65%

SMILES: Cc1cc(C)nc(NC(=O)c2cc3c(s2)CCCC3)n1 [compound 139, N-(4,6-dimethyl-2-pyrimidinyl)-4,5,6,7-tetrahydro-1-benzothiophene-2-carboxamide]
- Avg Normalized % maximal activity: 3.27%

SMILES: C[N+]1(C)C2CC(OC(=O)[C@H](CO)c3ccccc3)CC1C1OC12 (stereo partly shown) [compound 135]
- Avg Normalized % maximal activity: 3.47%

SMILES: CCOc1ccc(N(CC(=O)N2CCN(C)CC2)S(C)(=O)=O)cc1 [compound 50]
- Avg Normalized % maximal activity: 8.23%

SMILES: O=C(Nc1ccc(C(=O)N2CCCCC2)cc1)c1cc2ccccc2oc1=O [compound 70, 2-oxo-N-[4-(1-piperidinylcarbonyl)phenyl]-2H-chromene-3-carboxamide]
- Avg Normalized % maximal activity: 6.71%

SMILES: Nc1nc(N)n(-c2ccccc2)n1 [compound 118, 1-phenyl-1H-1,2,4-triazole-3,5-diamine]
- Avg Normalized % maximal activity: 4.28%

SMILES: CCOc1ccc2c(C)cc(=O)oc2c1C [compound 140, 7-ethoxy-4,8-dimethyl-2H-chromen-2-one]
- Avg Normalized % maximal activity: 3.21%

SMILES: Cc1nc(NC(=O)c2sc3ccccc3c2Cl)sc1C(=O)N(C)C [compound 10, 2-{[(3-chloro-1-benzothien-2-yl)carbonyl]amino}-N,N,4-trimethyl-1,3-thiazole-5-carboxamide]
- Avg Normalized % maximal activity: 45.82%

SMILES: O=C(Nc1ccc(-c2nnc(-c3ccccc3)o2)cc1)c1ccco1 [compound 30, N-[4-(5-phenyl-1,3,4-oxadiazol-2-yl)phenyl]-2-furamide]
- Avg Normalized % maximal activity: 13.43%

SMILES: COc1ccc(-c2nc3ccccc3o2)cc1NC(=O)c1cccnc1 [compound 27, N-[5-(1,3-benzoxazol-2-yl)-2-methoxyphenyl] nicotinamide]
- Avg Normalized % maximal activity: 14.03%

SMILES: CC[S+](CC)c1c([O-])[nH]c(=O)n(Cc2ccc(F)cc2)c1=O [compound 131, 5-(diethylsulfonio)-1-(4-fluorobenzyl)-2,6-dioxo-1,2,3,6-tetrahydro-4-pyrimidinolate]
- Avg Normalized % maximal activity: 3.65%

SMILES: COc1ccc(NC(=O)C2(c3ccccc3)CCCC2)cc1 [compound 126, N-(4-methoxyphenyl)-1-phenylcyclopentane-carboxamide]
- Avg Normalized % maximal activity: 3.87%

SMILES: COc1c(C)c2c(c(O)c1C/C=C(\C)CCC(=O)OCCN1CCOCC1)C(=O)OC2 [compound 127]
- Avg Normalized % maximal activity: 3.85%

SMILES: CCc1cccc(C)c1NS(=O)(=O)c1cccs1 [compound 36, N-(2-ethyl-6-methylphenyl)-2-thiophenesulfonamide]
- Avg Normalized % maximal activity: 11.14%

SMILES: CSc1ccccc1C(=O)Nc1nc(=O)c2ccccc2[nH]1 [compound 90, 2-(methylthio)-N-(4-oxo-1,4-dihydro-2-quinazolinyl)benzamide]
- Avg Normalized % maximal activity: 5.22%

SMILES: O=C(Nc1cccc(-c2nc3ncccc3o2)c1)c1ccco1 [compound 11, N-(3-[1,3]oxazolo[4,5-b]pyridin-2-ylphenyl)-2-furamide]
- Avg Normalized % maximal activity: 32.85%

SMILES: Cc1c(/C=C/c2nc3ccccc3c(=O)[nH]2)c2ccccc2n1C [compound 34, 2-[2-(1,2-dimethyl-1H-indol-3-yl)vinyl]-4(3H)-quinazolinone]
- Avg Normalized % maximal activity: 11.27%

SMILES: Cc1ccc2c(Cl)c(C(=O)Nc3cccnc3)sc2c1 [compound 60, 3-chloro-6-methyl-N-3-pyridinyl-1-benzothiophene-2-carboxamide]
- Avg Normalized % maximal activity: 7.53%

SMILES: Cc1ccc2oc(-c3ccc(NC(=O)C4CCCO4)cc3)nc2c1 (stereo not shown) [compound 39, N-[4-(5-methyl-1,3-benzoxazol-2-yl)phenyl]tetrahydro-2-furancarboxamide]
- Avg Normalized % maximal activity: 10.52%

SMILES: Cc1cccc(C(=O)Nc2ccc(-c3nnc(-c4ccco4)o3)cc2)c1 [compound 44, N-{4-[5-(2-furyl)-1,3,4-oxadiazol-2-yl]phenyl}-3-methylbenzamide]
- Avg Normalized % maximal activity: 9.07%

SMILES: COc1cccc(C(CC(=O)O)S(C)(=O)=O)c1 (stereo not shown) [compound 159]
- Avg Normalized % maximal activity: 2.12%

SMILES: Fc1ccc(C2CC(c3ccco3)n3ncnc3N2)cc1 (stereo not shown) [compound 23, 5-(4-fluorophenyl)-7-(2-furyl)-4,5,6,7-tetrahydro[1,2,4] triazolo[1,5-a]pyrimidine]
- Avg Normalized % maximal activity: 16.77%

SMILES: COc1ccccc1CN1CCN(Cc2ccccn2)CC1 [compound 69, 1-(2-methoxybenzyl)-4-(2-pyridinylmethyl) piperazine]
- Avg Normalized % maximal activity: 6.74%

SMILES: Cc1ccnc(NC(=O)c2cccc(NC(=O)c3ccco3)c2)c1 [compound 65, N-(3-{[(4-methyl-2-pyridinyl)amino]carbonyl}phenyl)-2-furamide]
- Avg Normalized % maximal activity: 7.09%
